Data published in BindingDB's records for doi:10.1021/jm00126a039 (University of Wisconsin-Madison, 1989).
pKi: −log10 of the molar value.

Target: T1, Gastricsin (Rattus norvegicus, UniProt P04073)
T1 sequence (P04073 whole entry): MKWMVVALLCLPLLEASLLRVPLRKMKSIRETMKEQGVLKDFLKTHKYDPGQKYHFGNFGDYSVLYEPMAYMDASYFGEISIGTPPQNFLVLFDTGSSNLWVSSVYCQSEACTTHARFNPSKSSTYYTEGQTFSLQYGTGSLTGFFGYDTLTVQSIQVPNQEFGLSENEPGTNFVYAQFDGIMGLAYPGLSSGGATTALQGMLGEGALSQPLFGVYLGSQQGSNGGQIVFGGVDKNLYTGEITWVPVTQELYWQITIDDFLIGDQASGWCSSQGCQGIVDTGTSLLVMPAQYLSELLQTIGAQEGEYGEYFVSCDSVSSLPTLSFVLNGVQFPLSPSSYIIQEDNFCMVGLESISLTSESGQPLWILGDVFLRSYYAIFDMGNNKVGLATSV
Experiment: ChEBML_154148
Source text: Inhibition of enzyme pepsin

Structure (SMILES)	pKi
CCC(NC(=O)[C@H](C)NC(=O)[C@H](C)CC(=O)[C@H](CC(C)C)NC(=O)[C@@H](NC(=O)CC(C)C)C(C)C)C(=O)O (stereo partly drawn)	6.96
CCC(NC(=O)[C@H](C)NC(=O)[C@H](C)C[C@H](O)[C@H](CC(C)C)NC(=O)[C@@H](NC(=O)CC(C)C)C(C)C)C(=O)O (stereo partly drawn)	8.52
CC(C)CCNC(=O)[C@H](C)NC(=O)C[C@H](O)[C@H](CC(C)C)NC(=O)[C@@H](NC(=O)CC(C)C)C(C)C [3-Hydroxy-6-methyl-4-[3-methyl-2-(3-methyl-butyrylamino)-butyrylamino]-heptanoic acid [1-(3-methyl-butylcarbamoyl)-ethyl]-amide]	8.52
